Data published in EP4644383A1 (Jiangsu Yahong Meditech Co., Ltd., priority 2022, dated 2024).

Columns and labels:
Assay type in all cases: biochemical
[1] = biological target: T1, FGFR4 (Homo sapiens, UniProt P22455); assay: FGFR4 kinase activity inhibition assay (LanthaScreen TR-FRET); conditions: FGFR4 kinase, TR-FRET; read-out: IC50 (nM) FGFR4
T1 construct: FGFR4's cytoplasmic domain [460-802 (terminal) amino acids]; purchased Carna 08-136
How it was run: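 GST-tagged cytoplasmic domains (FGFR2 aa 399-821; FGFR4 aa 460-802) were preincubated 10 min at 23 °C with compound (top 1 µM, threefold dilutions). Then 28 nM fluorescein-poly GT and 28 µM ATP were added for 30 min at 23 °C in HEPES pH 7.5 buffer. Tb-PY20 TR-FRET 520/495 ratio gave % inhibition versus DMSO and no-enzyme controls.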

[2] = biological target: T2, FGFR1 (Homo sapiens, UniProt P11362); assay: FGFR1 kinase activity inhibition assay (LanthaScreen TR-FRET); conditions: FGFR1 kinase, TR-FRET; read-out: IC50 (nM) FGFR1
T2 construct: cytoplasmic domain [398-822 (terminal) amino acids]; purchased Carna 08-133
T2 sequence (P11362 398-822): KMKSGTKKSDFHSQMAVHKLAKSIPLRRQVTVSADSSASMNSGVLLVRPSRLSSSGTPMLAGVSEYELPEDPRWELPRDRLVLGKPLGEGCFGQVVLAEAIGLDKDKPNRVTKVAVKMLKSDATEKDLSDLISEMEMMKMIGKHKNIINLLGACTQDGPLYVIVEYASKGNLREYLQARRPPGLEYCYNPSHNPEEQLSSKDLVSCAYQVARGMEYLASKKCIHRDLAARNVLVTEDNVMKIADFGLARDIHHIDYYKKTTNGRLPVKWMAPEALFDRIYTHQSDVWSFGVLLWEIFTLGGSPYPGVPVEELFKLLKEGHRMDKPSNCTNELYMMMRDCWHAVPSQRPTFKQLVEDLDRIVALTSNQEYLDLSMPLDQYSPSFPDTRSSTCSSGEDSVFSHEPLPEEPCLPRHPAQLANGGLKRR
How it was run: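 Emission ratio 520 nm/495 nm by TR-FRET after stopping reaction with 10 mM EDTA and 60 min incubation at 22°C. Inhibition normalized between no-enzyme (min) and DMSO (max) controls, then fitted to a four-parameter curve (Top, Bottom, HillSlope).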

[3] = biological target: T3, FGFR2 (Homo sapiens, UniProt P21802); assay: FGFR2 kinase activity inhibition assay (LanthaScreen TR-FRET); conditions: FGFR2 kinase, TR-FRET; read-out: IC50 (nM) FGFR2
T3 construct: FGFR2's cytoplasmic domain [399-821 (terminal) amino acids]; purchased Carna 08-134
T3 sequence (P21802 399-821): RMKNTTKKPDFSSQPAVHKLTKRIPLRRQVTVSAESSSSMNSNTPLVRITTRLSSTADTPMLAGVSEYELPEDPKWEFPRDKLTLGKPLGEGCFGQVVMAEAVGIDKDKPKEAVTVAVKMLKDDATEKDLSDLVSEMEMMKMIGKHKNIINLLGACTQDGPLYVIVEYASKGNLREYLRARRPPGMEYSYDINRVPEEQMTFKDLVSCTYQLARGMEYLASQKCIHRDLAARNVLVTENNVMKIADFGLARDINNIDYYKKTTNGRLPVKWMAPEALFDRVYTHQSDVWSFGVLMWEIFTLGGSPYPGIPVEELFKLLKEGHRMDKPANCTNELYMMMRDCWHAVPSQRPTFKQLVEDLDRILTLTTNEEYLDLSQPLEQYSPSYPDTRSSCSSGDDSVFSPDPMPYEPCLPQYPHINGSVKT
How it was run: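 GST-fused FGFR2 cytoplasmic domain (aa 399-821) was run as in the FGFR1 protocol: preincubated 10 min at 23 °C with compound (3-fold series from 1 µM) in 50 mM HEPES pH 7.5, 10 mM MgCl2, 4 mM DTT, 1% DMSO. A 2× mix of 28 nM fluorescein-poly GT/28 µM ATP then reacted 30 min. Tb-PY20/EDTA quench preceded the TR-FRET 520/495 read.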

[4] = biological target: T4, FGFR3 (Homo sapiens, UniProt P22607); assay: FGFR3 kinase activity inhibition assay (LanthaScreen TR-FRET); conditions: for IC50: FGFR3 kinase, TR-FRET, read-out: IC50 (nM) FGFR3; for Selectivity (X) FGFR1/FGFR3: ratio of IC50 FGFR1/FGFR3, selectivity towards FGFR3; for Selectivity (X) FGFR2/FGFR3: ratio of IC50 FGFR2/FGFR3, selectivity towards FGFR3; for Selectivity (X) FGFR4/FGFR3: ratio of IC50 FGFR4/FGFR3, selectivity towards FGFR3
T4 construct: FGFR3's cytoplasmic domain [436-806 (terminal) amino acids]; purchased Carna 08-135
T4 sequence (P22607 436-806): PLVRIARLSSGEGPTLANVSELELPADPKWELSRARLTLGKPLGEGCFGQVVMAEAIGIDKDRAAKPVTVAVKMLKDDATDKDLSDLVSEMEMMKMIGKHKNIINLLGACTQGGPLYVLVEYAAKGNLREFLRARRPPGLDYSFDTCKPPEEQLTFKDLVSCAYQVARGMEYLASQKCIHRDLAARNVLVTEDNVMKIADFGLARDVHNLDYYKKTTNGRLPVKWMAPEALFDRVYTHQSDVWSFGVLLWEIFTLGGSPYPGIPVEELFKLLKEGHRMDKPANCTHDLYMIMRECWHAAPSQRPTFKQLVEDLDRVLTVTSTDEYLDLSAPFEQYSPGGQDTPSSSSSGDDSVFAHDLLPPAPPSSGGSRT
How it was run: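 Read-out is TR-FRET, with the 520 nm/495 nm emission ratio normalised to DMSO (max) and enzyme-free (min) controls. Enzyme was the FGFR3 cytoplasmic domain, residues 436-806. EDTA (10 mM) stopped the reaction, followed by 60 min at 22 °C before reading.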

T1 sequence (P22455 460-802): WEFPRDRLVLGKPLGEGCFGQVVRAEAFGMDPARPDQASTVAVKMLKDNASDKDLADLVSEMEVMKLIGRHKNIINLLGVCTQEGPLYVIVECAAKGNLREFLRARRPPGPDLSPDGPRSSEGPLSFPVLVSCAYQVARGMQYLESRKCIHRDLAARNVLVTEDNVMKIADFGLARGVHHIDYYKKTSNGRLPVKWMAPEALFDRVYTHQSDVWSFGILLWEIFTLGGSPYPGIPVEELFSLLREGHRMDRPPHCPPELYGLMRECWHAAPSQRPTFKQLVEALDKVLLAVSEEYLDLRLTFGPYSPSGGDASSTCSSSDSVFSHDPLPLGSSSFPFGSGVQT

SMILES	IC50 [1] [nM]	IC50 [2] [nM]	IC50 [3] [nM]	IC50 [4] [nM]	Selectivity (X) FGFR1/FGFR3 [4]	Selectivity (X) FGFR2/FGFR3 [4]	Selectivity (X) FGFR4/FGFR3 [4]
CC(Oc1ccc2[nH]nc(-c3cnn(C)c3)c2c1)c1nccc2nccnc12 (stereo not shown) [Example 157, 5-(1-((3-(1-methyl-1H-pyrazol-4-yl)-1H-indazol-5-yl)oxy)ethyl)py ridino[3,4-b]pyrazine]	10 to 100	10 to 100	1 to 10	1 to 10	A (A represents 1 ≤ multiple X<20)	A (A represents 1 ≤ multiple X<20)	A (A represents 1 ≤ multiple X<20)
CC(Oc1ccc2[nH]nc(-c3cnn(C4CN(C(=O)CO)C4)c3)c2c1)c1cc(Cl)cc2ncccc12 (stereo not shown) [Example 189, 1-(3-(4-(5-(1-(7-chloroquinolin-5-yl)ethoxy)-1H-indazol-3-yl)-1H-pyrazol-1-yl)azetidin-1-yl)-2-hydroxyethan-1-one]	10 to 100	> 100	10 to 100	< 1	D (D represents 100 ≤ multiple X)	B (B represents 20 ≤ multiple X<50)	C (C represents 50 ≤ multiple X<100)
CC(Oc1ccc2[nH]nc(-c3cnn(C)c3)c2c1)c1cc(Cl)cn2nccc12 (stereo not shown) [Example 174, 5-(1-(6-chloropyrazolo[1,5-a]pyridin-4-yl)ethoxy)-3-(1-methyl-1H-pyrazol-4-yl)-1H-indazole]	10 to 100	10 to 100	1 to 10	< 1	B (B represents 20 ≤ multiple X<50)	B (B represents 20 ≤ multiple X<50)	D (D represents 100 ≤ multiple X)
CC(Oc1ccc2[nH]nc(-c3cnn(CCCS(C)(=N)=O)c3)c2c1)c1cc(Cl)cc2nccnc12 (stereo not shown) [Example 173, (3-(4-(5-(1-(7-chloroquinoxalin-5-yl)ethoxy)-1H-indazol-3-yl)-1H-pyrazol-1-yl)propyl)(imino)(methyl)-sulfanone]	10 to 100	1 to 10	1 to 10	< 1	A (A represents 1 ≤ multiple X<20)	A (A represents 1 ≤ multiple X<20)	B (B represents 20 ≤ multiple X<50)
C[C@@H](Oc1ccc2[nH]nc(-c3cnn(CCn4ccnc4)c3)c2n1)c1c(Cl)cncc1Cl [Example 60, (R)-3-(1-(2-(1H-imidazol-1-yl)ethyl)-1H-pyrazol-4-yl)-5-(1-(3,5-dichloropyridin-4-yl)ethoxy)-1H-pyrazolo[4,3-b]pyridine]	10 to 100	10 to 100	1 to 10	1 to 10	A (A represents 1 ≤ multiple X<20)	A (A represents 1 ≤ multiple X<20)	B (B represents 20 ≤ multiple X<50)
C[C@@H](Oc1cc(F)c2[nH]nc(-c3cnn(CC4CC4)c3)c2c1)c1c(Cl)cncc1Cl [Example 14, (R)-3-(1-(cyclopropylmethyl)-1H-pyrazol-4-yl)-5-(1-(3,5-dichloropyridin-4-yl)ethoxy)-7-fluoro-1H-indazole]	10 to 100	10 to 100	1 to 10	1 to 10	A (A represents 1 ≤ multiple X<20)	A (A represents 1 ≤ multiple X<20)	A (A represents 1 ≤ multiple X<20)
CC(Oc1ccc2[nH]nc(-c3cnn(C)c3)c2c1)c1cccc2nnccc12 (stereo not shown) [Example 119, 5-(1-((3-(1-methyl-1H-pyrazol-4-yl)-1H-indazol-5-yl)oxy)ethyl)cinnoline]	10 to 100	10 to 100	1 to 10	1 to 10	B (B represents 20 ≤ multiple X<50)	A (A represents 1 ≤ multiple X<20)	B (B represents 20 ≤ multiple X<50)
